Here are results for six compounds from ChEMBL document CHEMBL1152675, “3,4-Dihydropyrimido(1,2-a)indol-10(2H)-ones as potent non-peptidic inhibitors of caspase-3” (Bioorg Med Chem, 2009).

Structures are written as SMILES.

The data set is described as follows: Chemical stability in 90% deionized water after 24 hrs by NMR spectroscopy. Particulars: read-out: Stability. The class given is physicochemical.
Take `O=C1C2=NCC3(CCCC3)CN2c2ccc(S(=O)(=O)N3CCC[C@H]3COc3ccccc3)cc21`: the remaining at 24 h stood at 89%. The same measure for `COC[C@@H]1CCCN1S(=O)(=O)c1ccc2c(c1)C(=O)C1=NCC3(CCCC3)CN12`: 87%; for `COC[C@@H]1CCCN1S(=O)(=O)c1ccc2c(c1)C(=O)C1=NCC3(CCCCC3)CN12`: 71%.

Turning to `O=C1C2=NCC3(CCC3)CN2c2ccc(S(=O)(=O)N3CCC[C@H]3COc3ccccc3)cc21`, the remaining at 24 h came out at 69%.

For the compound `O=C1C2=NCC3(CCCCC3)CN2c2ccc(S(=O)(=O)N3CCC[C@H]3COc3ccccc3)cc21`, the remaining at 24 h turned out to be 72%. As for `COC[C@@H]1CCCN1S(=O)(=O)c1ccc2c(c1)C(=O)C1=NCC3(CCC3)CN12`, the remaining at 24 h came to 74%.
